According to patent US20250002450A1, “CATIONIC STEROID COMPOUNDS, METHOD OF OBTAINING THEREOF, FORMULATIONS COMPRISING THEREOF AND THEIR USES” (UNIVERSIDADE DO PORTO, priority 2021, published 2025):

Tests used:
[1] = test system: Escherichia coli ATCC 25922; test: Antibacterial MIC/MBC (broth microdilution); format: cell-based; conditions: Escherichia coli ATCC 25922
From the text: Twelve reference bacterial strains and nine MDR clinically relevant bacterial strains were used in this study. Gram-negative bacteria comprised reference strains E. coli ATCC 25922, K. pneumoniae ATCC 13883, Salmonella enterica serovar Typhimurium CECT 443, P. aeruginosa ATCC 27853, A. baumannii ATCC 19606, C. jejuni ATCC 33560 (ATCC—American Type Culture Collection; CECT—Colección Espanola de Cultivos Tipo); clinical isolates E. coli SA/2, an extended-spectrum β-lactamase (ESBL)-producing strain and P. aeruginosa 33b, a pan-drug-resistant isolate; and animal isolates C. jejuni P5/4, a ciprofloxacin-resistant strain, C. jejuni 4432, C. jejuni 4433, C. jejuni 4448, and E. coli 2252, a COL-resistant strain [42]. Gram-positive strains included S. aureus ATCC 29213, E. faecalis ATCC 29212, S. pyogenes ATCC 19615, and environmental isolates methicillin-resistant S. aureus (MRSA) 66/1 [43], and VAN-resistant enterococci (VRE) E. faecalis B3/101 [44]. Gram-negative fish pathogens Yersinia ruckeri ATCC 29473, Listonella anguillarum ATCC 1924, and Tenacibaculum maritimum ATCC 43397 were also included.
Strains were kept in Trypto-Casein Soy agar (TSA—Biokar Diagnostics, Allone, Beauvais, France) slants and, before each assay, were sub-cultured in Mueller-Hinton agar (MHA—Biokar Diagnostics, Allone, Beauvais, France). Y. ruckeri ATCC 29473 and L. anguillarum ATCC 1924 were kept in Nutrient Agar (Condalab, Madrid, Spain) and T. maritimum ATCC 43397 was kept in TMM agar (Condalab, Madrid, Spain), and were sub-cultured in the respective culture media before each assay. For S. pyogenes ATCC 19615, CAMHB was supplemented with 3.75% lysed horse blood (LBH—Oxoid, Basingstoke, England), whereas for C. jejuni it was supplemented with 2.5% LHB. Colony-forming unit counts of the inoculum were conducted to determine the initial inoculum size (which should be approximately 5×10^5 CFU/mL). Sterility and growth controls were included in each assay. The 96-well U-shaped untreated polystyrene microtiter plates were incubated for 20 h at 37 degrees C. (42 degrees C. for C. jejuni, in a microaerophilic atmosphere) and the minimal inhibitory concentration (MIC) was determined as the lowest concentration of compound that prevented visible growth. The minimal bactericidal concentration (MBC) was determined by spreading 100 μL of the content of the wells with no visible growth on MH plates. The MBC was determined as the lowest concentration of compound that killed 99.9% of the initial inoculum after overnight incubation at 37 degrees C. Two independent assays were performed for reference and MDR strains.
An initial screening of the antibacterial activity of the compounds was performed by the Kirby-Bauer disk diffusion method, as recommended by the Clinical and Laboratory Standards Institute (CLSI). Briefly, sterile 6 mm blank paper disks (Oxoid, Basingstoke, England) impregnated with 15 μg of each compound were placed on inoculated MH agar plates. A blank disk with dimethylsulfoxide (DMSO) was used as a negative control. MH inoculated plates were incubated for 18-20 h at 37 degrees C. At the end of incubation, the inhibition halos where measured. The MIC was used to determine the antibacterial activity of each compound, in accordance with the recommendations of the CLSI. Two-fold serial dilutions of the compounds were prepared in Mueller-Hinton Broth 2 (MHB2—Sigma-Aldrich, St. Louis, MO, USA) within the concentration range of 0.062-64 μg/mL. CTX ranging between 0.031-16 μg/mL was used as a control. Sterility and growth controls were included in each assay. Purity checks and colony counts of the inoculum suspensions were also performed in order to ensure that the final inoculum density closely approximates the intended number (5×10^5 CFU/mL). The MIC was determined as the lowest concentration of compound that inhibited growth of the bacteria. The MBC was assessed by spreading 10 μL of culture collected from wells showing no visible growth on MH agar plates. […]

[2] = test system: E. coli ATCC 25922; test: Membrane integrity, propidium iodide influx assay (SYTO 9/PI); format: cell-based, Escherichia coli; conditions: 0, 1, 18 h
Method: The influx of PI in E. coli ATCC 25922 treated with 2×MIC, MIC, and ½×MIC of compound 1 was evaluated using a commercial kit that includes fluorescent nucleic acid stains SYTO® 9 and PI. SYTO® 9 can enter cells with intact or damaged membranes, generally labeling both, whereas PI only penetrates cells with severe membrane lesions, causing a reduction in SYTO® 9 fluorescence when both dyes are present.
In these assays, COL and AMP were used as controls. COL is a polycationic antimicrobial peptide with a complex mode of action, that ultimately solubilizes the bacterial cell membrane. AMP is an aminopenicillin that inhibits cell wall synthesis by inhibiting penicillin-binding proteins. E. coli ATCC 25922 cells were treated with compound 1 and, at several time-points (0, 1, and 18 h), samples were taken, and SYTO® 9/PI ratio was determined ([FIG. 4]). The entrance of PI is reflected in a reduction of this ratio.
Briefly, E. coli ATCC 25922 colonies from overnight cultures in MHA were suspended in CAMHB to prepare an inoculum with a final concentration of approximately 5×10^5 CFU/mL. The tubes were incubated overnight at 36° C. in a water bath with shaking. Following this, the cell suspensions were centrifuged at 3500 rpm for 15 min, the supernatant was removed, the cells were carefully resuspended in fresh CAMHB and the suspension was adjusted to 0.5 McFarland. An aliquot of this suspension was then added to each tube of CAMHB alone (control) or CAMHB plus an appropriate amount of test compound. […] The tubes were incubated at 36 degrees C. in a water bath with shaking and, at pre-established time points (0, 1, and 18 h), […] aliquots were retrieved for further analysis. After the exposure time, cells were washed two times, resuspended in 0.85% NaCl, and 100 μL of each cell suspension was distributed in the wells of a microtiter plate, in triplicate. 100 μL of a mixture of 30 μM PI and 5 μM SYTO® 9 prepared in ultrapure water were added to each well, and the plates were incubated at room temperature, in the dark, for 15 min. The fluorescence intensity of the stained bacterial suspensions was determined using a microplate reader (Synergy HT, BioTek Instruments, Winooski, VT, USA) by two consecutive measurements with excitation wavelength 485 nm and emission wavelength 528 nm (SYTO® 9) or 590 nm (PI). Data were analyzed by subtracting background fluorescence from each sample, dividing the fluorescence intensity of SYTO® 9 by fluorescence intensity of PI, and the results are presented as a percentage of control. Three independent assays were performed in triplicate for each experimental condition.

[3] = test system: E. coli ATCC 25922; test: Enzymatic/metabolic activity, MTT assay; format: cell-based, Escherichia coli; conditions: 0, 1, 18 h
Method: To determine whether compound 1 could also affect enzymatic activity, 2-(4,5-dimethyl-2-thiazolyl)-3,5-diphenyl-2H-tetrazolium bromide (MTT) assay was performed. This assay can also be used as an indirect measure of cellular viability, as tetrazolium salts are reduced to purple formazan by metabolically active cells. E. coli ATCC 25922 cells were treated with compound 1 and COL and AMP were used as controls, as described above. Measurements were made at 0, 1, and 18 h.
Enzymatic activity was evaluated by the MTT assay, as previously described, with some modifications. Cell suspensions of E. coli ATCC 25922 were prepared as described above, as well as test conditions and controls. At each time point (0, 1, and 18 h), 500 μL aliquots were collected, centrifuged at 3500 rpm for 10 min, the supernatant was removed, and 300 μL of MTT solution (0.5 mg/mL in CAMHB, at 36 degrees C.) (Thiazolyl Blue Tetrazolium Bromide, Alfa Aesar, Ward Hill, MA, USA) were added. After a 30 min incubation at 36° C., the insoluble formazan product resulting from the conversion of MTT by metabolically active cells was solubilized with 300 μL of DMSO. 100 μL of each sample were transferred in duplicate to the wells of a microtiter plate and the extent of the reduction of MTT to formazan was quantified by measuring the absorbance at 570 nm (Thermo Scientific Multiskan® EX, Thermo Fisher Scientific, Waltham, MA, USA). Three independent assays were performed in duplicate, and results are expressed as a percentage of untreated control.

Q: With colistin as the substance, how does the MIC [1] read?
A: The MIC was 1 µg/mL.

Q: And the “reduction in SYTO 9/PI ratio vs untreated control” value ([2]; 1 μg/mL)?
A: Its value is “only a significant reduction at 1 h”.

Q: What about the “reduction in SYTO 9/PI ratio vs untreated control” value ([2]; 8 μg/mL) of the same substance?
A: The value was “statistically significant”.

Q: What about the “metabolic activity (MTT) vs untreated control” value ([3]; 1 μg/mL) of the same substance?
A: Its value is “only a significant reduction at 1 h”.

Q: And the “metabolic activity (MTT) vs untreated control” value ([3]; 8 μg/mL)?
A: The value was “significant reduction of metabolic activity at all time points”.
